Experimental data reported in US20130272962A1, “STAINING AGENT FOR CORNEAL STAINING” (FLUORON GMBH, priority 2012, published 2013).

What was measured:
[1] = Staining of ophthalmic membranes
[2] = Solubility of the dyestuff in liquids for application in the eye; type: physicochemical; conditions: for solubility in liquids suitable for application in the anterior and posterior region of the eye: balanced salt solution (BSS), water for injection; for solubility in liquids that are heavier than water: ≧1.01 g/cm^3, e.g. polyethylene glycol
eukaryotes = conditions: cited from earlier work
[3] = Ito et al. 2004; cited from earlier work
[4] = tested on: Human Retinal Pigment Epithelium in Vitro; conditions: Wu et al. 2005; cited from earlier work
[5] = tested on: Human Corneal Epithelial Cells; conditions: intensified by interaction with light; Kim et al. 1999; cited from earlier work
cornea = conditions: Ünlü et al. 2000; Gamal Eldin et al. 1999; cited from earlier work
[6] = tested on: Human Retinal Pigment Epithelial Cells; conditions: Veckeneer et al. 2002 (rabbit eyes); Rezai et al. 2004; cited from earlier work
[7] = Cahen 1964; product information BLURHEX; cited from earlier work

CCN(CC)c1ccc(C(=C2C=CC(=[N+](CC)Cc3cccc(S(=O)(=O)[O-])c3)C=C2)c2ccc(N(CC)Cc3cccc(S(=O)(=O)O)c3)cc2)cc1 [Acid Violet 17]
coloring of the inner limiting membrane (ILM) and the anterior and posterior lens capsules [1]: capable of coloring both the inner limiting membrane (ILM) and the anterior and posterior lens capsules | staining of the cornea or constituents thereof [1]: capable of staining the cornea or constituents thereof | solubility in liquids suitable for application in the anterior and posterior region of the eye [2]: very readily soluble | solubility in liquids that are heavier than water [2]: very readily soluble

[2H]O[2H] [Heavy water, D2O]
concentration in water tolerated by eukaryotes (eukaryotes): ≤ 20%

CCOc1ccc(Nc2ccc(/C(=C3C=C/C(=[N+](/CC)Cc4cccc(S(=O)(=O)[O-])c4)C=C/3C)c3ccc(N(CC)Cc4cccc(S(=O)(=O)[O-])c4)cc3C)cc2)cc1.[Na+] [BBG, Brilliant Blue G]
coloring of the inner limiting membrane (ILM) and the anterior and posterior lens capsules [1]: capable of coloring both the inner limiting membrane (ILM) and the anterior and posterior lens capsules | staining of the cornea or constituents thereof [1]: capable of staining the cornea or constituents thereof | solubility in liquids suitable for application in the anterior and posterior region of the eye [2]: very readily soluble | solubility in liquids that are heavier than water [2]: very readily soluble

CC1(C)C(/C=C/C=C/C=C/C=C2\N(CCCCS(=O)(=O)O)c3ccc4ccccc4c3C2(C)C)=[N+](CCCCS(=O)(=O)[O-])c2ccc3ccccc3c21 [ICG, indocyanine green]
cytotoxicity [3]: cytotoxic | phototoxicity [4]: phototoxic

O=C([O-])c1c(Cl)c(Cl)c(Cl)c(Cl)c1-c1c2cc(I)c(=O)c(I)c-2oc2c(I)c([O-])c(I)cc12.[Na+].[Na+] [Rose bengal]
cytotoxicity [5]: cytotoxic

CN(C)c1ccc(C(=C2C=CC(=[N+](C)C)C=C2)c2ccc(N(C)C)cc2)cc1 [Gentian violet]
corneal oedema (cornea): cause corneal oedemas

Cc1cc(-c2ccc(/N=N/c3c(S(=O)(=O)O)cc4cc(S(=O)(=O)O)cc(N)c4c3O)c(C)c2)ccc1/N=N/c1c(S(=O)(=O)O)cc2cc(S(=O)(=O)O)cc(N)c2c1O [trypan blue]
cytotoxicity [6]: cytotoxic | teratogenic or mutagenic effect [7]: teratogenic or mutagenic effect
